From ChEMBL document CHEMBL1201862, “PubChem BioAssay data set” (2004)
Calls of active or inactive are those of the source.

What was measured:
[1] = molecular target: Cytochrome P450 2C19 (Homo sapiens, UniProt P33261); assay: Cytochrome panel assay with activity outcomes. Panel member name: p450-cyp2c19 Compounds with AC50 equal or less than 10 uM are considered active; assay type: functional
[2] = molecular target: T1, Cytochrome P450 1A2 (Homo sapiens, UniProt P05177)
T1 sequence (P05177 whole entry): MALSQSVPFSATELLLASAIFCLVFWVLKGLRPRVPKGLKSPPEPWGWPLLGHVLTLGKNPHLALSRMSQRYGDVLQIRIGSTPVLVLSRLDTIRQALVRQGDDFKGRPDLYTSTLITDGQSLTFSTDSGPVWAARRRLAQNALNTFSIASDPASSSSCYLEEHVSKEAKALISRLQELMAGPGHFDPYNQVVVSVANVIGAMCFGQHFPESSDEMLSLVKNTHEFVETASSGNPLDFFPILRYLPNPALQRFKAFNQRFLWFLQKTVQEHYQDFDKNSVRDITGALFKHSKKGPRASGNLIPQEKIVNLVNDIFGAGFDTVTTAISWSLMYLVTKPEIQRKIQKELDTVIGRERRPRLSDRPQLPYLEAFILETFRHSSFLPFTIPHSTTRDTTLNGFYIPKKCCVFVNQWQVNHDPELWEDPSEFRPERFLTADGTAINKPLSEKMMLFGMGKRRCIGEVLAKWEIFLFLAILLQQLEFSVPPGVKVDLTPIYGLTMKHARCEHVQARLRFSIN

[3] = molecular target: Cytochrome P450 2C9 (Homo sapiens, UniProt P11712)
[4] = Luminescence Cell-Based Dose Retest to Confirm Inhibitors of Cancer Stem Cells. [Related pubchem assays (depositor defined):AID2717, AID2721]; assay type: functional; settings: Homo sapiens
[5] = molecular target: T2, Replicative DNA helicase DnaB (Mycobacterium tuberculosis, UniProt P9WMR3); assay: DnaB intein splicing inhibitors, dose response, biochemical, cell-free fluorescence (AID 449749); assay type: functional
T2 sequence (P9WMR3 whole entry): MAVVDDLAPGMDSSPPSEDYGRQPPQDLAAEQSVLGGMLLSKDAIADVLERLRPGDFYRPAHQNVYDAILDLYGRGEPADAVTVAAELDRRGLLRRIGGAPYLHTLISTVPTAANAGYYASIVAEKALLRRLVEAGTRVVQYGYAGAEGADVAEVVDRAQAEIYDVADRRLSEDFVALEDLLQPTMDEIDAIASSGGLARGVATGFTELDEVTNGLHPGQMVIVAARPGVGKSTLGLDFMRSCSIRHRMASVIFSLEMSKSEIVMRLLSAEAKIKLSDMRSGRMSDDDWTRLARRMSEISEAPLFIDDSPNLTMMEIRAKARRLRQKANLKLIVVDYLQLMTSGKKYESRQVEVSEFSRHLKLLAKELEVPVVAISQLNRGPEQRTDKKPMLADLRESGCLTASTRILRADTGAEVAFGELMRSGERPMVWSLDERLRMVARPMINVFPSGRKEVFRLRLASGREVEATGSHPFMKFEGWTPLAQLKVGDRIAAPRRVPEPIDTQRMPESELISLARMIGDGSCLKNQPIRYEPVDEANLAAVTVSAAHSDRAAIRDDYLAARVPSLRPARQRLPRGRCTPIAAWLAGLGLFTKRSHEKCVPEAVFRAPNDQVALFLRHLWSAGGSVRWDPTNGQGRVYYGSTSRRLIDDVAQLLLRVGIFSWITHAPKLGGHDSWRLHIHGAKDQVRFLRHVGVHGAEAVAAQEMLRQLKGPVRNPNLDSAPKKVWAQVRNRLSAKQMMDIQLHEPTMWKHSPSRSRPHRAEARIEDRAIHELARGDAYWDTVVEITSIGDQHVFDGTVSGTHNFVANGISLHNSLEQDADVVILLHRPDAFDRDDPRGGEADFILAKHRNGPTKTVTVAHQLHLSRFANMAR

[6] = molecular target: T3, Protein RecA (Mycobacterium tuberculosis, UniProt P9WHJ3); assay: Fluorescence Cell-Free Homogeneous Dose Retest to Identify Inhibitors of RecA-Intein Splicing Activity. [Related pubchem assays (depositor defined):AID2097, AID2223, AID489010, AID492950]; assay type: functional
T3 sequence (P9WHJ3 whole entry): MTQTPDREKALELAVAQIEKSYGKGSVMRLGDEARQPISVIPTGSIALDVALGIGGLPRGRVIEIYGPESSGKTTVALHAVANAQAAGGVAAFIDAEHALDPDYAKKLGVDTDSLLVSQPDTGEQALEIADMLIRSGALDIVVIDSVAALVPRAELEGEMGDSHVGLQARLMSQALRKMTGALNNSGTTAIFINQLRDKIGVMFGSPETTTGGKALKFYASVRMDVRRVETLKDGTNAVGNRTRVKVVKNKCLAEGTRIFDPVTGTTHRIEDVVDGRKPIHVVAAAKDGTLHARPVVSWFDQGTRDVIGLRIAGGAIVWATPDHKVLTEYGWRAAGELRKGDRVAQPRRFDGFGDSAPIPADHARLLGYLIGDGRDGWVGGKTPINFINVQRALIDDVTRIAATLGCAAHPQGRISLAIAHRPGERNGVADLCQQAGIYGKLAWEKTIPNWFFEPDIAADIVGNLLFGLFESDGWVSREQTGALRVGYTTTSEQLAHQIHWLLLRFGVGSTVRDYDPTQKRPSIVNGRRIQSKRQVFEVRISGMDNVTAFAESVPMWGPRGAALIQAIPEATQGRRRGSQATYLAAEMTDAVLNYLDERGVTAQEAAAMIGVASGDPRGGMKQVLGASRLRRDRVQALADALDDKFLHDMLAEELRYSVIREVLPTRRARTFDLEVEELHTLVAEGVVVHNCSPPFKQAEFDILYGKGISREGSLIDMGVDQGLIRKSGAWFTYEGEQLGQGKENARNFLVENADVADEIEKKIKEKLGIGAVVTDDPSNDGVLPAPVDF

[7] = molecular target: Cytochrome P450 3A4 (Homo sapiens, UniProt P08684);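 further: CYP3A4 tested as one member of a cytochrome P450 panel screen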
[8] = molecular target: Cytochrome P450 2D6 (Homo sapiens, UniProt P10635);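 further: CYP2D6 member of a cytochrome P450 panel assay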
[9] = system: INS1; assay: beta cell apoptosis inhibitors, cytokine rescue, dose response, luminescence, retest (AID 449756); assay type: functional, cell-based; settings: Rattus norvegicus;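 further: cell death triggered by IL-1 beta plus TNF-alpha plus IFN-gamma mixture; protective hits raise ATP signal compared with cytokine alone wells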

Cytochrome P450 2C9, sequence (P11712 whole entry): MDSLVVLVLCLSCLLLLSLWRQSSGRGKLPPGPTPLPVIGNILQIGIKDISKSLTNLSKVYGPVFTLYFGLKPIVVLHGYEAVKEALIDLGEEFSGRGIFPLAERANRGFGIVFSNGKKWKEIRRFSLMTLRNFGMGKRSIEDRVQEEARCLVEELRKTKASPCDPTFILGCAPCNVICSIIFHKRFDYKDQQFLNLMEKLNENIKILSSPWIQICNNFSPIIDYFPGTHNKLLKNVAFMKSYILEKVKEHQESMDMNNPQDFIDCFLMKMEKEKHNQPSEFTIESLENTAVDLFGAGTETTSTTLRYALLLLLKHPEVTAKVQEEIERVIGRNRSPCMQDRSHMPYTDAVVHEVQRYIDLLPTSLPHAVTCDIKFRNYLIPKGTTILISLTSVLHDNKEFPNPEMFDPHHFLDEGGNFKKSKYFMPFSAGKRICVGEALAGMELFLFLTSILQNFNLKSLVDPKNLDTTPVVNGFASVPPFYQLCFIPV
Cytochrome P450 3A4, sequence (P08684 whole entry): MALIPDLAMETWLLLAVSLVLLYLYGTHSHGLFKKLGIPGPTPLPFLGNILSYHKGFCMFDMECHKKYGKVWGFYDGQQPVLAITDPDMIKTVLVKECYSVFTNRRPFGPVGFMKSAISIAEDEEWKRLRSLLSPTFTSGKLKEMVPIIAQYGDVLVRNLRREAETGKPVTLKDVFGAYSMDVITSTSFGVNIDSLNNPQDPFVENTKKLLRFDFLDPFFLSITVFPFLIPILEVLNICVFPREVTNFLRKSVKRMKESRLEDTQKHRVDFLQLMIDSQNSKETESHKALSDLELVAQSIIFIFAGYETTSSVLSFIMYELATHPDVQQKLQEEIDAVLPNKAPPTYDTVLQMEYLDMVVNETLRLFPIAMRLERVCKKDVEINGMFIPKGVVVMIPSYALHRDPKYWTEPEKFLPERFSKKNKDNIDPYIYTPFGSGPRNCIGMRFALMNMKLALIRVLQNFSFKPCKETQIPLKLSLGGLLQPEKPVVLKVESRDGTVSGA
Cytochrome P450 2C19, sequence (P33261 whole entry): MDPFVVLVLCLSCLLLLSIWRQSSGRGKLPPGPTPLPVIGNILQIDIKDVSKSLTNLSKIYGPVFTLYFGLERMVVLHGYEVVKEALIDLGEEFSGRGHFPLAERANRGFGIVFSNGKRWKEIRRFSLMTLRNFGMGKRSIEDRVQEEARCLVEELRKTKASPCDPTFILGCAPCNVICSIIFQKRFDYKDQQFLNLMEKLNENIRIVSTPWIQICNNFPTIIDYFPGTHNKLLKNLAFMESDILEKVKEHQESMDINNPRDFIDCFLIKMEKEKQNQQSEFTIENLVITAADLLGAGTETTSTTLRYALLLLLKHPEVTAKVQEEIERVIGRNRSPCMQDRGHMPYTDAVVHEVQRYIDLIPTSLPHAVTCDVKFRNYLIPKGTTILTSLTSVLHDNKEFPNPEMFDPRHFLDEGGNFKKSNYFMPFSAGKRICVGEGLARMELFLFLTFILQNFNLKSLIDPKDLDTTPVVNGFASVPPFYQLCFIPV
Cytochrome P450 2D6, sequence (P10635 whole entry): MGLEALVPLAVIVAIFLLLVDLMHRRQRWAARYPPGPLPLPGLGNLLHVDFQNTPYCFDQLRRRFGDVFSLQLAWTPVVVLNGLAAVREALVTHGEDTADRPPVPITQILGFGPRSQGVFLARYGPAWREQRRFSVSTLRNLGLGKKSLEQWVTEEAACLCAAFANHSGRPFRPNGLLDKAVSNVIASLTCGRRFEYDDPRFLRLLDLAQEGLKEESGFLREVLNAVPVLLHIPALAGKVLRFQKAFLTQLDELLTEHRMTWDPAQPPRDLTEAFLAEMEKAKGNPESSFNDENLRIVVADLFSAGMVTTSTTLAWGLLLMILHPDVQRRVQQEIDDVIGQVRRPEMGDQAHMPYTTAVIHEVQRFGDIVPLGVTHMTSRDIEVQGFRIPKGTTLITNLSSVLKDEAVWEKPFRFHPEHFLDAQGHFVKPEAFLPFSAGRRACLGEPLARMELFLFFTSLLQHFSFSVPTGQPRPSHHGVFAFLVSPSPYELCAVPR

With COc1cc2c(cc1OC)CN(CC(=O)Nc1ccc3c(c1)OCO3)CC2 the AC50 ([1]; read-out: AC50) was 22.4 µM (inconclusive), the AC50 [2] was 20 µM (inconclusive) and the AC50 [3] was 14.1 µM (inconclusive).
For CC(OC(=O)c1cccs1)C(=O)NC1CCCCC1C (centres undefined), the AC50 [4] was > 195 µM (inactive).
With N#CC1=C(N)Oc2[nH]nc(-c3ccncc3)c2C1c1ccsc1 (centres undefined) the AC50 [5] was 13.4 µM (active) and the EC50 [6] was 3.27 µM (active).
In the case of CC(C)=C1C(=O)C(c2ccccc2)=C2CN3C(=O)N(CCc4ccccc4)C(=O)[C@]3(Cc3ccccc3)[C@H]21, the AC50 ([1]; read-out: AC50) is reported as 25.1 µM (inconclusive) and the AC50 [7] is reported as 5.01 µM (inconclusive).
With S=C1N(c2ccccc2)C(c2ccc(Cl)cc2)N2CCCN12 (centres undefined) the AC50 [7] was 12.6 µM (inconclusive) and the AC50 [3] was 10 µM (inconclusive).
For O=C(Nc1cccc(Cl)c1)Nn1cnnc1, the AC50 [2] was 3.16 µM (inconclusive) and the AC50 [7] was 3.16 µM (inconclusive).
For Cc1ccc(Cn2nnc3c(O)nc(C4CCCN(C(=O)Nc5ccc(F)cc5F)C4)nc32)cc1 (centres undefined), the AC50 ([1]; read-out: AC50) was 39.8 µM (inconclusive), the AC50 [8] was 25.1 µM (inconclusive) and the AC50 [2] was 31.6 µM (inconclusive). The AC50 [3] was 22.4 µM (inconclusive).
For Cc1ccc(-c2nc(C[S+]([O-])CC(=O)NCc3ccc4c(c3)OCO4)c(C)o2)cc1 (centres undefined), the AC50 [4] was > 195 µM (inactive).
For COc1cc2c(cc1OC)C(CCN)=NCC2, the AC50 [1] was “inconclusive”, the AC50 [8] was 1.58 µM (inconclusive) and the AC50 [2] was 5.01 µM (inconclusive). The AC50 [7] was 3.98 µM (inconclusive).
With O=C(c1cccc(S(=O)(=O)N2CCc3ccccc3C2)c1)N1CCN(c2ccc(O)cc2)CC1 the AC50 [4] was 4.51 µM (active).
For N#CC1=C(N)Oc2[nH]nc(-c3cccs3)c2C1c1ccccc1C(=O)O (centres undefined), the AC50 [5] was 2.69 µM (active) and the EC50 [6] was 1.56 µM (active).
With N=C(N)N/N=C(/c1ccccc1)c1ccc(O)cc1O the AC50 [7] was 3.98 µM (inconclusive).
For CCN(Cc1cc(Cl)cc(C)c1O)Cc1c(O)ccc2ccccc12, the AC50 [2] was 1 µM (inconclusive) and the AC50 [3] was 5.01 µM (inconclusive).
In the case of COc1ccccc1CN1CC2(CCN(C(=O)c3ccncc3)CC2)C1, the AC50 [7] is reported as 7.94 µM (inconclusive).
For O=C(Nc1ccc(F)cc1F)N1CCCN(CCOc2ccccc2)CC1, the AC50 [9] was 13.3 µM (active).
With Cc1ccc(C(=O)Oc2ccc([N+](=O)[O-])cc2)cc1S(=O)(=O)N1CCCCCC1 the AC50 [5] was 3.4 µM (active) and the EC50 [6] was 4.99 µM (active).
In the case of O=C(c1coc2ccccc2c1=O)N1CCN(c2cccc(C(F)(F)F)c2)CC1, the AC50 [7] is reported as 22.4 µM (inconclusive).
With COc1ncc2nc(-c3cc(F)cc(F)c3)c(=O)n(C3CC3)c2n1 the AC50 [7] was 12.6 µM (inconclusive) and the AC50 [3] was 31.6 µM (inconclusive).
